Experimental data from patent US12385042B2, “Cell-penetrating peptides” (VECTIOPEP OÜ, priority 2019, dated 2025).
Where a SMILES comes first, the peptide text is derived from it. Bridges are numbered along the chain shown (N, C = ends). Roman numbers before positions name the chains, in order. [ ]: non-standard residue; d: D form. The star is where a group is joined. Arachidoyl = CCCCCCCCCCCCCCCCCCCC(=O)*; Orn = NCCC[C@H](N)C(=O)O

Assays:
[1] = tested on: CHO stably expressing green fluorescent protein (GFP); experiment: GFP gene downregulation by CPP/siGFP complexes (lysate fluorescence, FACS, confocal); assay type: cell-based
Protocol: (§1) For assessing the siRNA mediated RNAi, CHO-GFP or U87-luc2 cells (5×10^5 cells per well) were seeded on a 24-well plate a day prior to the experiment and grown in serum containing media. On experiment day, prior to adding pre-formed complexes ( 1/10th of the final volume per well), media was replaced with fresh serum containing medium.
(§2) For complex formation, peptide was mixed with luc2 siRNA (sense 5′-[…]-3′ (SEQ ID NO:7), antisense 5′-[…] 3′ (SEQ ID NO:8), Metabion, Germany) or with siRNA against GFP (5′-[…] (SEQ ID NO:9), 3′-[…] (SEQ ID NO:10)) in mQ water (pH 5.3-6.3) using peptide to siRNA molar ratios (MR is the ratio of peptide to siRNA) […] and incubated at RT for 1 h. For siLuc2, the final concentration in media was 25 nM and for siGFP 100 nM. Cells were co-incubated with complexes for 4 h (37° C., 5% CO2), thereafter fresh serum containing media was added and followed by further incubation (20 h for siLuc2 or 44 h for siGFP complexes). Luciferase gene downregulation was measured from cell lysates with Promega luciferase assay system (Promega, Sweden) in combination with GLOMAX 96 microplate luminometer equipped with GLOMAX 1.9.2 software (Promega). GFP was measured after treatment from cell lysates on black 96-well plates by measuring total fluorescence (Symergy MX, BioTek Instruments, USA equipped with Gen5 1.10 software). The results were normalized to the protein content of each sample (DC Protein Assay, BioRad, USA).
For flow cytometry analysis (FACS) analysis CHO-GFP cells were seeded and treated as described previously. After incubation, cells were washed with 1× PBS and detached from plates with trypsin-EDTA (0.25%), and re-suspended in PBS supplemented with FBS (5%) and transferred to transparent U-bottom 96-well plates. FACS was carried out with BD LSR II flow cytometer (BD Biosciences, San Jose, CA, USA) equipped with a 488 nm argon laser. Population of viable cells was determined from scatter plot: forward scattered plot (FSC) vs. side scattered light (SSC) plot. A minimum of 10,000 events from the viable cell population per sample were analyzed using BD FACS Diva software. Results are shown as the population with GFP signal lower than that of 0.1% of untreated cells.
For confocal microscopy 2×10^5 cells per chamber were seeded on NUNC 8-chamber plates. After treatment with complexes (25 ul of pre-formed CPP/siRNA complexes added to cells in 225 ul serum containing media), incubated (48 h) and GFP florescence images of cells were captured using confocal microscope Zeiss LSM 710 and excitation at 488 nm (493-616 filter).

[2] = tested on: U87 MG-luc2 human glioma cells, stably expressing luc2; experiment: Luciferase gene downregulation by CPP/siRNA (siLuc2) complexes; assay type: cell-based; settings: for Red (%) (reduction, based on remaining luminescence on U87 cells post-treatment): siRNA against luciferase
Protocol: as §1, §2
Luciferase activity was determined as described in previous paragraph.
For determination of pH dependency on the transfection efficiency, complexes were formed at MR30, incubated and diluted before addition to cells to obtain siRNA final concentration 10 nM in transfection media. HEPES buffer supplemented with 10% FBS was used as transfection media. Complexes were co-incubated with cells for 4 h and then media was replaced with cell growth media. After further 20 h incubation cells were lysed and analyzed as described previously.
The experiment was carried out in serum containing media (10% FBS). CPP/siRNA complexes were formed at different molar ratios with siRNA concentration kept constant (50 nM in transfection media). Luminescence from luciferin-luciferase reaction was measured at 24 hours post-treatment from cell lysate. Results were normalized to protein content and luminescence values from untreated cells (100%).

[3] = Fluorescent dye (PicoGreen) intercalation and heparin displacement assay of CPP/siRNA complexes; assay type: physicochemical; settings: MR30, no heparin
Protocol: Complexation of siRNA and CPPs was assessed by Quant-iT™ PicoGreen® (PG) (Thermo Fisher Scientific, USA) assay in mQ water. Complexes were prepared as described previously, following addition of diluted PG. For detection, complexes (⅕ of volume), water (3/5) and PG (1/5) working dilution was incubated for 5 minutes and fluorescence was measured by fluorimeter (λex=492 nm, λem=535 nm) (SynergyMx, BioTek). For heparin displacement, instead of water, heparin salt solution at different concentrations were used and complexes incubated at 37° C. for 30 min before addition of PG dilution. Complex formation was also confirmed by gel electrophoresis (details in section 2.11).

murine red blood cells = experiment: Membrane activity assay on murine red blood cells: hemolysis; assay type: cell-based, mouse
Protocol: For evaluation of membrane activity of peptides, hemolysis assay was used. For this whole blood was collected from mouse (adult, BALB/c) saphenous vein into a heparinized collection tube. Blood was centrifuged (2300× g, 15 min) to separate cells (red blood cells-RBC) from the plasma. RBCs were washed according to following procedures.
RBCs were washed with 10 ml 0.9% NaCl saline and centrifuged (600× g, 15 min). Supernatant was discarded after each centrifugation. This was repeated at least 3 times. RBCs were re-suspended in 5 ml saline and distributed equally to tubes and centrifuged (600× g, 15 min). The cells were washed and re-suspended in 2× PBS with the required pH (pH 5.5-7.5). The hemoglobin content in stocks was measured after lysis of cells with equal volume of 0.1% Triton X100 supplemented with 5% glucose. The cell suspension was diluted accordingly for each pH value to obtain similar concentration range of hemoglobin in stocks. To each 100 ul of peptide solution 100 ul of 10% glucose was added, mixed, and equal volume (200 ul) of RBC in 2× PBS were added and gently mixed. Peptide solution with RBCs was incubated at 37° C. for 1 h with gentle mixing (max 300 rpm) after which samples were centrifuged to pellet intact cells from the solution. Hemoglobin from lysed cells was determined from each sample from the supernatant on transparent 96-well plates by measuring the absorbance at 540 nm.
Controls were incubated in similar manner as samples. As a non-hemolysis control mQ supplemented with glucose (0%) was used and for hemolytic control 0.1% TritonX-100 with glucose (100%) was used (cells are suspended in 2× PBS before addition). Final percent was calculated as follows: […]
For hemolytic concentration determination 2× PBS at pH 7.5 was used for incubation and 1× PBS at pH 7.5 was used for washing. Everything else is as described in previous paragraph.

Molecule | Red (%) (reduction, based on remaining luminescence on U87 cells post-treatment) ([2]; CPP/siRNA complexes) | further results
CCCCCCCCCCCCCCCCCCCC(=O)N[C@@H](Cc1c[nH]cn1)C(=O)N[C@@H](Cc1c[nH]cn1)C(=O)N[C@@H](Cc1c[nH]cn1)C(=O)N[C@@H](Cc1c[nH]cn1)C(=O)N[C@@H](Cc1c[nH]cn1)C(=O)N[C@@H](Cc1c[nH]cn1)C(=O)N[C@@H](Cc1ccc(O)cc1)C(=O)N[C@@H](Cc1c[nH]cn1)C(=O)N[C@@H](Cc1c[nH]cn1)C(=O)NCC(=O)NCCC[C@H](N)C(=O)N[C@H](C(=O)N[C@@H](CC(C)C)C(=O)N[C@@H](CC(C)C)C(=O)N[C@@H](CCCCN)C(=O)N[C@@H](C)C(=O)N[C@@H](CC(C)C)C(=O)N[C@@H](CCCCN)C(=O)N[C@@H](C)C(=O)N[C@@H](CC(C)C)C(=O)N[C@@H](C)C(=O)N[C@@H](CCCCN)C(=O)N[C@@H](C)C(=O)N[C@H](C(=O)N[C@@H](CC(C)C)C(N)=O)[C@@H](C)CC)[C@@H](C)CC [NF72] (I: H-[Orn]ILLKALKALAKAIL-NH2 / II: Arachidoyl-HHHHHHYHHG; amide I:1-II:C) | 80 | cells with downregulated reporter gene (GFP signal below threshold), FACS ([1]; CHO-GFP, CPP/siGFP complexes): 40%; GFP signal in confocal images ([1]; live cells treated with CPP/siGFP complexes): higher GFP signal when compared to complexes formed with peptides with less histidines in sequence; luciferase downregulation efficiency (in words) ([2]; CPP/siRNA complexes, comparison between CPPs): significantly less efficient than other compared CPPs; remaining reporter activity ([2]; molar ratio 30 (MR30, peptide to siRNA), untreated cells 100%): 34%; accessibility of siRNA in complexes (dye intercalation) [3]: low accessibility of siRNA; HC50 Free peptide (murine red blood cells; free peptide, pH 7.5): >10 µM; hemolytic activity of free peptide (in words) (murine red blood cells; free peptide, up to 10 uM): less hemolytic than that of other peptides; pH dependent hemolytic activity (in words) (murine red blood cells; peptide 0.75 uM, buffer pH 5.5-7.5): almost no effect at physiologic pH, but lysed almost all cells at pH 5.5
HHHHHHGO^eILLKALKALAKAIL [NF706, C22 fatty acid on N-terminus; C-terminally amidated] | 59 | 
HHHHHHYHHGO^eILLKALKALAKAIL [NF721, group H8; C18 saturated fatty acid on N-terminus; C-terminally amidated] | 55 | 
HHHHHHYHHGO^eILLKALKALAKAIL [NF722, group H8; C22 saturated fatty acid on N-terminus; C-terminally amidated] | 45 | 
HHHHHHYLLGO^eILLKALKALAKAIL [NF707, group H6^2 (histidines before tyrosine); C18 fatty acid on N-terminus; C-terminally amidated] | 70 | 
HHHHHHYLLGO^eILLKALKALAKAIL [NF708, group H6^2 (histidines before tyrosine); C20 fatty acid on N-terminus; C-terminally amidated] | 71 | 
HHHHHHYLLGO^eILLKALKALAKAIL [NF709, group H6^2 (histidines before tyrosine); C22 fatty acid on N-terminus; C-terminally amidated] | 55 | 
HHHHHYHHGO^eILLKALKALAKAIL [NF719, group H7; C18 saturated fatty acid on N-terminus; C-terminally amidated] | 39 | 
HHHHHYHHGO^eILLKALKALAKAIL [NF723, group H7; C20 saturated fatty acid on N-terminus; C-terminally amidated] | 49 | 
HHHHHYHHGO^eILLKALKALAKAIL [NF724, group H7; C22 saturated fatty acid on N-terminus; C-terminally amidated] | 40 | 
HHHHYHHGO^eILLKALKALAKAIL [NF701, group H6; C10 (decanoyl) fatty acid on N-terminus; C-terminally amidated] | 20 | 
HHHHYHHGO^eILLKALKALAKAIL [NF711, group H6; C16 saturated fatty acid on N-terminus; C-terminally amidated] | 35 | 
HHHYHHGO^eILLKALKALAKAIL [NF715, group H5; C18 saturated fatty acid on N-terminus; C-terminally amidated] | 62 | 
HHHYHHGO^eILLKALKALAKAIL [NF718, group H5; C22 saturated fatty acid on N-terminus; C-terminally amidated] | 75 | 
HHYHHGO^eILLKALKALAKAIL [NF712, group H4; C20 saturated fatty acid on N-terminus; C-terminally amidated] | 83 | 
HHYHHGO^eILLKALKALAKAIL [NF713, group H4; C22 saturated fatty acid on N-terminus; C-terminally amidated] | 47 | 
HHYHHGO^eILLKALKALAKAIL [NF717, group H4; C16 saturated fatty acid on N-terminus; C-terminally amidated] | 43 | 
HYHHGO^eILLKALKALAKAIL [NF726, group H3; C20 saturated fatty acid on N-terminus; C-terminally amidated] | 50 | 
